# In patent publication US10314811B2, “Compositions and methods for selectively inhibiting intestinal carboxylesterase 2 enzyme activity” (The Methodist Hospital, priority 2015, dated 2019):
# Read-outs that look alike come from different tables or passages of the source.
# Key:
# human liver CES1 = molecular target: T1, human liver CES1 (Homo sapiens, UniProt P23141); assay: CES1 enzyme assay (4-nitrophenyl acetate hydrolysis); assay type: biochemical; conditions: for inhibition of CES1: concentrations as high as 300 μM
# T1 construct: purchased Sigma Aldrich E0162
# T1 sequence (P23141 18-567): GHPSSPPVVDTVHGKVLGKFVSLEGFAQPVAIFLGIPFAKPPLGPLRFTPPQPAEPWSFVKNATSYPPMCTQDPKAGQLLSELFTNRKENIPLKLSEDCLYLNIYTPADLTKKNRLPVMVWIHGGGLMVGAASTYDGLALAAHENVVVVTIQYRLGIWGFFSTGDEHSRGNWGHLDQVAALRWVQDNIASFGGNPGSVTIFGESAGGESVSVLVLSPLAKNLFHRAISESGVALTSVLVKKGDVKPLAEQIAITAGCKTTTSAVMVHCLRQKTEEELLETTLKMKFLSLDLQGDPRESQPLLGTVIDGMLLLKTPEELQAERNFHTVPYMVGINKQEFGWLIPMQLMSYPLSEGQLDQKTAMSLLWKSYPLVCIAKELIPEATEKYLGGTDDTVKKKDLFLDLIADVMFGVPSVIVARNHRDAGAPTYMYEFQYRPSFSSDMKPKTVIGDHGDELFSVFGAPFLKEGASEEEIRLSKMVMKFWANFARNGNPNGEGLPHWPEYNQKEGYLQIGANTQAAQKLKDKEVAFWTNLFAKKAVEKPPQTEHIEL
# Excerpt: CES2 and CES1 enzyme assays were used for primary screening and IC50 determination of potential inhibitors. The assays are well established and widely used in compound discovery and lead optimization for CES inhibitors. See, e.g., Wadkins et al. 2004, Mol. Pharmacol. 65(6):1336 1343; Wadkins et al. 2005, J. Med. Chem. 48(8):2906 2915; Hicks et al. 2009, J. Med. Chem. 52(12):3742 3752; Hyatt et al. 2007, J. Med. Chem. 50(8):1876 1885; Hicks et al. 2007, Bioorg. Med. Chem. 15(11):3801 3817; Hyatt et al. 2007, J. Med. Chem., 50(23):5727 5734; Wadkins et al. 2007, Mol. Pharmacol. 71(3):713 723; and Young et al. 2010, J. Med. Chem., 53(24):8709 8715. CES converts esters into the corresponding alcohol and carboxylic acid. The esterase substrate, 4 nitrophenyl acetate (4 NPA), was used to detect enzyme activity. The recombinant purified intestinal CES2 and human liver CES1 enzymes and 4 NPA were purchased from Sigma Aldrich (product ID E0412, E0162, and N8130, respectively). […] The assays were conducted in a total volume of 300 μL in 96 well microtiter plates. Reaction mixtures consisted of the following: 100 μL 50 mM HEPES with 10 units of enzyme, 10 μL compound solution (various concentrations), 2 μL 300 mM 4 NPA and 188 μL 50 mM HEPES, pH 7.4. The test compound and 4 NPA solution were added to the wells first and then the reaction was initiated by the addition of enzyme solution. After incubation for 15 min. at 25° C., absorbance at 405 nm was measured using a microplate reader.
# [1] = molecular target: T2, recombinant purified intestinal CES2 (Homo sapiens, UniProt O00748); assay: CES2 enzyme assay (4-nitrophenyl acetate hydrolysis); assay type: biochemical
# T2 construct: purchased Sigma Aldrich E0412
# T2 sequence (O00748 27-559): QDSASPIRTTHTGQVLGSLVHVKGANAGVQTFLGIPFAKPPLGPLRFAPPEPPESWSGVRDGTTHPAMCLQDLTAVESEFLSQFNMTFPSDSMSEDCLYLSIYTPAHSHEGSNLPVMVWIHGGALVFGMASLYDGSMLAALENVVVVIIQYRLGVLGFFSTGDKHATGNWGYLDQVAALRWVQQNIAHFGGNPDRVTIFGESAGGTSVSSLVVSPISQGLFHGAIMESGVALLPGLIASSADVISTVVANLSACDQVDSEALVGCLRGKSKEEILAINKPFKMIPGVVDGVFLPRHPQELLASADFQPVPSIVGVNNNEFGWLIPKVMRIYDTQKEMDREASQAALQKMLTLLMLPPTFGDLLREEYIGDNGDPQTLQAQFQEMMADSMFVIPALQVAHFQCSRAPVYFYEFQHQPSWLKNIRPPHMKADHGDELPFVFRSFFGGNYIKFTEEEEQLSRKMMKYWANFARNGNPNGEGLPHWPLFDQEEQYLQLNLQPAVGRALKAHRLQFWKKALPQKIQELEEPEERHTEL
# Procedure: CES2 and CES1 enzyme assays were used for primary screening and IC50 determination of potential inhibitors. […] The esterase substrate, 4 nitrophenyl acetate (4 NPA), was used to detect enzyme activity. The recombinant purified intestinal CES2 and human liver CES1 enzymes and 4 NPA were purchased from Sigma Aldrich (product ID E0412, E0162, and N8130, respectively). […] The assays were conducted in a total volume of 300 μL in 96 well microtiter plates. Reaction mixtures consisted of the following: 100 μL 50 mM HEPES with 10 units of enzyme, 10 μL compound solution (various concentrations), 2 μL 300 mM 4 NPA and 188 μL 50 mM HEPES, pH 7.4. The test compound and 4 NPA solution were added to the wells first and then the reaction was initiated by the addition of enzyme solution. After incubation for 15 min. at 25° C., absorbance at 405 nm was measured using a microplate reader.
# [2] = tested on: CT 26 tumor bearing Balb/cJ mice; assay: In vivo testing of anti-diarrheal activity with CPT-11 in tumor bearing mice (Example 3); conditions: for anti-tumor efficacy, as evaluated by tumor growth, versus CPT-11 only group / losses in body weight induced by CPT-11 treatment / survival rates as compared to CPT-11 alone: 40 mg/kg orally with CPT-11 50 mg/kg i.p.; for anti-tumor efficacy, as evaluated by tumor growth, versus CPT-11 only group: FIG. 1A; for losses in body weight induced by CPT-11 treatment: FIG. 1B at 14-16 days of treatment; for survival rates as compared to CPT-11 alone: FIG. 1C; for day on which diarrhea occurred: CPT-11 50 mg/kg i.p., CES2 inhibitor (if any) 40 mg/kg orally; for Percentage of mice having diarrhea: CPT-11 50 mg/kg i.p. day 1-10, CES2 inhibitor (if any) 40 mg/kg orally day 0-11
# Procedure: CPT-11 was purchased from Selleck Chemicals. To obtain an injectable formulation, CPT-11 (20 mg/mL) was dissolved in a solution containing D sorbitol (45 mg/mL) and D lactic acid (0.9 mg/mL) in ddH2O, and heated to ˜70° C. to 90° C. for 5 to 10 min See Trifan et al. 2002, Cancer Res., 62(20):5778 5784. The pH of the solution was adjusted to 3.5 prior to sterile filtration. The solution was stored protected from light until just prior to administration.
# Each of these compounds was dissolved separately in 100% DMSO and then diluted into a 0.5% carboxymethylcellulose solution. The final concentration of DMSO was less than 1%.
# (§1) Healthy 6-8 week old female Balb/cJ mice were obtained from Jackson Laboratories (Bar Harbor, Me. USA). CT 26 tumor cells, derived from a murine Balb/c colon adenocarcinoma, were used to form tumors by subcutaneous injection of tumor cells into the posterior mid-dorsum of the mice. When tumors reached ˜500 mm^3 (˜10 days after implantation, defined as day 1), treatment was initiated. The mice were divided into five groups of 3-4 animals each and treated as follows:
# (1) Vehicle group, mice received an equivalent volume of CPT-11 vehicle i.p. from day 1 to day 10, and an equivalent volume of compound vehicle orally from day 0 to day 11;
# (2) CPT-11 only group, mice received CPT-11 (50 mg/kg) i.p. from day 1 to day 10, and an equivalent volume of compound vehicle orally from day 0 to day 11;
# CPT-11 and the CES2 inhibitors were each administrated once per day during the experiment.
# The CES2 inhibitor treatment groups were compared to the CPT-11 only group and to the vehicle control group. Four major parameters were examined to quantify the effect of CES2 inhibitors, namely, body weight change, presence of diarrhea, survival time, and average tumor size.
# [3] = tested on: CT 26 tumor bearing Balb/cJ mice; assay: In vivo efficacy of CPT-11 plus hesperetin at different doses (Example 4); conditions: for Percentage of mice having diarrhea: CPT-11 alone
# Excerpt: as §1
# [4] = 4 NPA substrate, 15 min at 25° C., pH 7.4, read-out: IC50 CES1 Assay
# [5] = both hesperetin doses (20 mg/kg and 100 mg/kg) with CPT-11
compound,measurement,setting,value
"O=C(/C=C/c1ccccc1)c1ccc(O)cc1O [2′,4′ dihydroxychalcone, 2′,4′-dihydroxychalcone]",IC50,human liver CES1; [4],> 300 µM
same,inhibition of CES1,human liver CES1,No significant inhibition
same,Selectivity (IC50 CES1)/(IC50 CES2),[1],>180
same,IC50,"[1]; 4 NPA substrate, 15 min at 25° C., pH 7.4",1.66 µM
same,"anti-tumor efficacy, as evaluated by tumor growth, versus CPT-11 only group",[2],No significant changes
same,losses in body weight induced by CPT-11 treatment,[2],reversed
same,survival rates as compared to CPT-11 alone,[2],improved
same,day on which diarrhea occurred,[2],13 days
same,Percentage of mice having diarrhea,[2]; day 12 after treatment,no mice
"CCc1c2c(nc3ccc(OC(=O)N4CCC(N5CCCCC5)CC4)cc13)-c1cc3c(c(=O)n1C2)COC(=O)[C@]3(O)CC [CPT-11, irinotecan]",Percentage of mice having diarrhea,[3]; day 8 after treatment,10%
same,Percentage of mice having diarrhea,[3]; day 9 after treatment,20%
same,Percentage of mice having diarrhea,[3]; day 10 after treatment,40%
same,Percentage of mice having diarrhea,[3]; day 11 after treatment,70%
same,Percentage of mice having diarrhea,[3]; day 12 after treatment,70%
same,day on which diarrhea occurred,[2],9 days
same,Percentage of mice having diarrhea,[2]; day 9 after treatment,50%
same,Percentage of mice having diarrhea,[2]; day 10 after treatment,50%
same,Percentage of mice having diarrhea,[2]; day 11 after treatment,75%
same,Percentage of mice having diarrhea,[2]; day 12 after treatment,75%
same,Percentage of mice having diarrhea,[2]; day 13 after treatment,75%
same,Percentage of mice having diarrhea,[2]; day 14 after treatment,75%
COc1ccc([C@@H]2CC(=O)c3c(O)cc(O)cc3O2)cc1O [hesperetin],IC50,human liver CES1,> 300 µM
same,inhibition of CES1,human liver CES1,No significant inhibition
same,number of animals exhibiting diarrhea as compared to CPT-11 alone,[3]; [5],reduced
same,onset of diarrhea as compared to CPT-11 alone,[3]; [5],significantly delayed
same,survival of animals as compared to CPT-11 alone,"[3]; co-administering hesperetin and CPT-11, both hesperetin doses, FIG. 2C",improved
same,loss in body weight induced by CPT-11 administration,"[3]; co-administration of hesperetin at both doses tested, FIG. 2B",reduced
same,anti-tumor efficacy of CPT-11 on co-administration,[3]; either dose of hesperetin (20 mg/kg or 100 mg/kg),improved
same,day of onset of diarrhea,[3]; hesperetin 20 mg/kg with CPT-11,10 days
same,day of onset of diarrhea,[3]; hesperetin 100 mg/kg with CPT-11,12 days
same,"anti-tumor efficacy, as evaluated by tumor growth, versus CPT-11 only group",[2],No significant changes
same,losses in body weight induced by CPT-11 treatment,[2],reversed
same,survival rates as compared to CPT-11 alone,[2],improved
same,day on which diarrhea occurred,[2],12 days
same,Percentage of mice having diarrhea,[2]; day 12 after treatment,25%
O=C1C[C@@H](c2ccc(O)cc2)Oc2cc(O)cc(O)c21 [naringenin],IC50,human liver CES1; [4],159 µM
same,"anti-tumor efficacy, as evaluated by tumor growth, versus CPT-11 only group",[2],No significant changes
